pIC50, pKi: −log10 of the molar value.
Assays:
[1] = biological target: 5-hydroxytryptamine receptor 6 (Homo sapiens, UniProt P50406); assay type: cell membranes, HeLa, Membrane; details: hela; note: in other assays of this panel Not Active means under 50% inhibition at 10 µM
[2] = biological target: T1, Cysteinyl leukotriene receptor 1 (Homo sapiens, UniProt Q9Y271); assay type: cell membranes, CHO-K1, Membrane; details: cho-k1; note: in other assays of this panel Not Active means under 50% inhibition at 10 µM
T1 sequence (Q9Y271 whole entry): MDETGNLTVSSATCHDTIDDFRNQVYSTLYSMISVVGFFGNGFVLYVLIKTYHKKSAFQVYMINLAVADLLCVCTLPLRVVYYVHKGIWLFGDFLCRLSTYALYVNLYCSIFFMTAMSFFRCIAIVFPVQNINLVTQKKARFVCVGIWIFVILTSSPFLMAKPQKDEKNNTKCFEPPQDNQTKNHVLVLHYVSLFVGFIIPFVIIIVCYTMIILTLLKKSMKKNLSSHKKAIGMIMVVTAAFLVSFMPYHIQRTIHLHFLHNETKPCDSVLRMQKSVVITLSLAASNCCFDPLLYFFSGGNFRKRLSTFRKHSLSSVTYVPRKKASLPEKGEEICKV

Cytochrome P450 1A2 = biological target: T2, Cytochrome P450 1A2 (Homo sapiens, UniProt P05177); details: bti-tn-5b1-4; note: in other assays of this panel Not Active means under 50% inhibition at 10 µM
T2 sequence (P05177 whole entry): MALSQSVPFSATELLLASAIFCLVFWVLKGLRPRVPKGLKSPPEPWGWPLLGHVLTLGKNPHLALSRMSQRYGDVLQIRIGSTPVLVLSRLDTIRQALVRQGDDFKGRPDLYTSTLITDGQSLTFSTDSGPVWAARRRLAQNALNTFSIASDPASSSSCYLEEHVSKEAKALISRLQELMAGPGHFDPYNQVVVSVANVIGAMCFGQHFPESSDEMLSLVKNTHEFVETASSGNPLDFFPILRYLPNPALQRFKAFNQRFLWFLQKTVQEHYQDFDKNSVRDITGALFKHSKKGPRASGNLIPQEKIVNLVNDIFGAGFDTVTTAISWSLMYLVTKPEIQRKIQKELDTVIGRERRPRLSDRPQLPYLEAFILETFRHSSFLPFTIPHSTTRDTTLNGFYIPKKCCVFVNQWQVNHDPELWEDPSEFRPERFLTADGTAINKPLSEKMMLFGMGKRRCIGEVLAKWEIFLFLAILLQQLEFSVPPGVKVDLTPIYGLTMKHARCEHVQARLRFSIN

[3] = biological target: T3, Alpha-1D adrenergic receptor (Homo sapiens, UniProt P25100); assay type: cell membranes, HEK293, Membrane; details: for IC50: hek293; for all read-outs here: in other assays of this panel Not Active means under 50% inhibition at 10 µM
T3 sequence (P25100 whole entry): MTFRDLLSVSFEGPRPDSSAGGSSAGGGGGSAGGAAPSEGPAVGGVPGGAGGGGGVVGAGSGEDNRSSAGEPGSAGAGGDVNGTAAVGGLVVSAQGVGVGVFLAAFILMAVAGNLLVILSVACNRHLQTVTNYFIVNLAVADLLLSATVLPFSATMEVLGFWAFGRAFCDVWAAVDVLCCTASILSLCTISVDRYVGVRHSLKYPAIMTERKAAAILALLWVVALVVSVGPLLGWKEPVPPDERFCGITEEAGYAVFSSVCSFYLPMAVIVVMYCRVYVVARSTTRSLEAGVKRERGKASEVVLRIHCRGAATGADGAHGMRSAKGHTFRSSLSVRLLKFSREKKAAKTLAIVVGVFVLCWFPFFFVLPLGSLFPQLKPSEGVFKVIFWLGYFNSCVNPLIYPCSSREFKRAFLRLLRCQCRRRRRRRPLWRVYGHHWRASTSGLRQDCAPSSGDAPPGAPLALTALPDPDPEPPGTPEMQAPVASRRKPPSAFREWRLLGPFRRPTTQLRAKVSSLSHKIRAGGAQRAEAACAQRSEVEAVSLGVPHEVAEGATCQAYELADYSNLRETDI

Cytochrome P450 2E1 = Cytochrome P450 2E1 (Homo sapiens, UniProt P05181); details: bti-tn-5b1-4; note: in other assays of this panel Not Active means under 50% inhibition at 10 µM
Sequence of Cytochrome P450 2E1 (P05181 whole entry): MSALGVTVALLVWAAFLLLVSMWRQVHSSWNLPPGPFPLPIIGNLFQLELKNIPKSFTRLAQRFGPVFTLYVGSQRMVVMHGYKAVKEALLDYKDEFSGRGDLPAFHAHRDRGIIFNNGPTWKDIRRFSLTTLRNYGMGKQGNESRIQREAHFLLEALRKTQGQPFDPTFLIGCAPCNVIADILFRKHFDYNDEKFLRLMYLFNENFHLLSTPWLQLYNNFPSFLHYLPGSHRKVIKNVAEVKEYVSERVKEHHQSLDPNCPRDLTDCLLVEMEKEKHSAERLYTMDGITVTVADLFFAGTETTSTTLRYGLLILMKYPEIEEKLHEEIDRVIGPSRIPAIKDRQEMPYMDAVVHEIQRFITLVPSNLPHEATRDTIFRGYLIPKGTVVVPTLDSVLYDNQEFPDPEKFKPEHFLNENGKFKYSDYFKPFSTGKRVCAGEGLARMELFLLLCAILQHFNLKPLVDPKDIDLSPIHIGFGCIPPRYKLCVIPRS

Substance-P receptor = Substance-P receptor (Homo sapiens, UniProt P25103); assay type: cell membranes, CHO, Membrane; details: cho; note: in other assays of this panel Not Active means under 50% inhibition at 10 µM
Sequence of Substance-P receptor (P25103 whole entry): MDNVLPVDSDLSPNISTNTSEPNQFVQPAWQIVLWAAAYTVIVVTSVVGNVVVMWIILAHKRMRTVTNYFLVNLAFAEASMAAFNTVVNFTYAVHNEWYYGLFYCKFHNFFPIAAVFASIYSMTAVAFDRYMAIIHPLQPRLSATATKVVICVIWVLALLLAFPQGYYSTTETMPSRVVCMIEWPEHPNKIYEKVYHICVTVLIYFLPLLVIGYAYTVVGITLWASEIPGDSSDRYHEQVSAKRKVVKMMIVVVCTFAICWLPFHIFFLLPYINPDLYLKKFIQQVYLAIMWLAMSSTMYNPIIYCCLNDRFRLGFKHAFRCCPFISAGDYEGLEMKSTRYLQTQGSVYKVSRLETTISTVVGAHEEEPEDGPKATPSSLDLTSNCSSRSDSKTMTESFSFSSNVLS

[4] = biological target: Mitogen-activated protein kinase 3 (Homo sapiens, UniProt P27361); assay: DRUGMATRIX: Protein Serine/Threonine Kinase, ERK1 enzyme inhibition (substrate: Myelin Basic Protein); design: species or system Escherichia coli; details: Not Active = under 50% inhibition at 10 µM
Sequence of Mitogen-activated protein kinase 3 (P27361 whole entry): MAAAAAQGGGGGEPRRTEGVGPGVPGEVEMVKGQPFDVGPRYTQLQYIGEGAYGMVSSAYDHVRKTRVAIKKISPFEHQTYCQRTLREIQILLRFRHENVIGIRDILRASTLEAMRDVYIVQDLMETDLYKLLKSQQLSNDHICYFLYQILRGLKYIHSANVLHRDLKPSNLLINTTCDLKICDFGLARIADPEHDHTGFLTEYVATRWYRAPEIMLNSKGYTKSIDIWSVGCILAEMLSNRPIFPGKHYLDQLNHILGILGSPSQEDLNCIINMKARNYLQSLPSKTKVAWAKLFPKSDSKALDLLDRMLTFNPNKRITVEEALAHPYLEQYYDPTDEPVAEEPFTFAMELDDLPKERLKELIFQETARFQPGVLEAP

Adenosine receptor A1 = biological target: T4, Adenosine receptor A1 (Homo sapiens, UniProt P30542); assay type: cell membranes, CHO, Membrane; details: cho
T4 sequence (P30542 whole entry): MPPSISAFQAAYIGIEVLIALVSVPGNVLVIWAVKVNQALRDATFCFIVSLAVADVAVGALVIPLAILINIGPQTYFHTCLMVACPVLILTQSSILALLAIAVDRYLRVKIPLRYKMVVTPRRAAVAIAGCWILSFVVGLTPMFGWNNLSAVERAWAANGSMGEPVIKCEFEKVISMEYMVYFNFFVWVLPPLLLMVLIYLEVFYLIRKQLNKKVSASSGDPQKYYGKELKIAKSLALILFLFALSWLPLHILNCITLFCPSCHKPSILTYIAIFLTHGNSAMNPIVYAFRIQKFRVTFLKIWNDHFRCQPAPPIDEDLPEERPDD

[5] = biological target: 5-hydroxytryptamine receptor 1B (Rattus norvegicus, UniProt P28564); assay type: cell membranes, Wistar, Cerebral cortex, Membrane; note: in other assays of this panel Not Active means under 50% inhibition at 10 µM
Sequence of 5-hydroxytryptamine receptor 1B (P28564 whole entry): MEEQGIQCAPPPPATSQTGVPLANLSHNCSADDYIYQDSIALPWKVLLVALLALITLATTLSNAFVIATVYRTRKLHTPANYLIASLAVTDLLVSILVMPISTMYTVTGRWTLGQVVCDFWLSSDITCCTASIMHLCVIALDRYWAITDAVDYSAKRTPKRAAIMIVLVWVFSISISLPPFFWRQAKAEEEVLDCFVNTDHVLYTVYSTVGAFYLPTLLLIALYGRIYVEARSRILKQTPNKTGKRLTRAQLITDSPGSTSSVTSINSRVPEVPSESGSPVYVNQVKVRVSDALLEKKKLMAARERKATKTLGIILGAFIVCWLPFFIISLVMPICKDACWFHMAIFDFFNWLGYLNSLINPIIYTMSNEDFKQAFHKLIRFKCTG

[6] = biological target: Mitogen-activated protein kinase 1 (Homo sapiens, UniProt P28482); assay: DRUGMATRIX: Protein Serine/Threonine Kinase, ERK2 enzyme inhibition (substrate: Myelin Basic Protein); design: species or system Escherichia coli; details: Not Active = under 50% inhibition at 10 µM
Sequence of Mitogen-activated protein kinase 1 (P28482 whole entry): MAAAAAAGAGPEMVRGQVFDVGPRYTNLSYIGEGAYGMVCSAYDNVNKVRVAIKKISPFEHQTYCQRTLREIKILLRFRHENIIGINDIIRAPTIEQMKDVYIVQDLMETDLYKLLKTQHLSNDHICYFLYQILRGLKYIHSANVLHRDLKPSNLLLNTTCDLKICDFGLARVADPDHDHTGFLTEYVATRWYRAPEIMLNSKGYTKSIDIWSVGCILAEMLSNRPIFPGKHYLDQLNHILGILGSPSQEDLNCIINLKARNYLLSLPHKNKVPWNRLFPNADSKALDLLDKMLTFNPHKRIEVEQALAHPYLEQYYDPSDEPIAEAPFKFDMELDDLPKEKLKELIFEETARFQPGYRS

[7] = biological target: 5-hydroxytryptamine receptor 4 (Cavia porcellus, UniProt O70528); assay type: cell membranes, Dunkin-Hartley, Striatum, Membrane; note: in other assays of this panel Not Active means under 50% inhibition at 10 µM
Sequence of 5-hydroxytryptamine receptor 4 (O70528 whole entry): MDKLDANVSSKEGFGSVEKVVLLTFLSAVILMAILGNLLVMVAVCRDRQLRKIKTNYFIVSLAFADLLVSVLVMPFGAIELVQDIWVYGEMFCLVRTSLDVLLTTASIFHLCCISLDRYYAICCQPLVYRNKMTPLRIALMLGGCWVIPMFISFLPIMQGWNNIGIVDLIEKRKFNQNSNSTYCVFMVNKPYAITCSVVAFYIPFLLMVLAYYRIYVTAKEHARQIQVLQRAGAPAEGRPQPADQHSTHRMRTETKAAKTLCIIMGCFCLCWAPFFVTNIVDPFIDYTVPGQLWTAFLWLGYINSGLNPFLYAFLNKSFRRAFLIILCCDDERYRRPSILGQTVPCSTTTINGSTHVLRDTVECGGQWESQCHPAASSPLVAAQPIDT

Endothelin-1 receptor = biological target: T5, Endothelin-1 receptor (Homo sapiens, UniProt P25101); assay type: cell membranes, Membrane; details: cho-k1; note: in other assays of this panel Not Active means under 50% inhibition at 10 µM
T5 sequence (P25101 whole entry): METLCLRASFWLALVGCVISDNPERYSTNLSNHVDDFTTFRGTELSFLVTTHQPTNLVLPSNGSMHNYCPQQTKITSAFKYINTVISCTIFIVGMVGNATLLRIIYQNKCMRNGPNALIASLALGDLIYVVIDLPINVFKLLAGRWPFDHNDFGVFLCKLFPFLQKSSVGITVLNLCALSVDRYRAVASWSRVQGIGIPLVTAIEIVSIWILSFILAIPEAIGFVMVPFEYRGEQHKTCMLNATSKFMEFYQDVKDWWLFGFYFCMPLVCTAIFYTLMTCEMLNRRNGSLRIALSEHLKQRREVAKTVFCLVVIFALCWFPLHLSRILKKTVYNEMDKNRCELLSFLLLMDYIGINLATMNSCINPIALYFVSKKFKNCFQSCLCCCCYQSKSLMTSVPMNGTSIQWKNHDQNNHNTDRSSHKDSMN

Melanocortin receptor 3 = Melanocortin receptor 3 (Homo sapiens, UniProt P41968); assay type: cell membranes, Membrane; details: hek293; note: in other assays of this panel Not Active means under 50% inhibition at 10 µM
Sequence of Melanocortin receptor 3 (P41968 whole entry): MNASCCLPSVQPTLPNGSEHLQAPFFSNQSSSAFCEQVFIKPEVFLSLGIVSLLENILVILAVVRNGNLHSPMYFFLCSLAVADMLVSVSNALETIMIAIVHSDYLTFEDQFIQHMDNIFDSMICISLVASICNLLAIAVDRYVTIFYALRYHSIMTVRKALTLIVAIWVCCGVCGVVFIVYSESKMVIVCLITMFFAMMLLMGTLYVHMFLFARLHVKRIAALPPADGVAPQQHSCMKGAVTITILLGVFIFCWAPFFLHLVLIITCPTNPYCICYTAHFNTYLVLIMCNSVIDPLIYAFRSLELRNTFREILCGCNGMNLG

Sequence of 5-hydroxytryptamine receptor 6 (P50406 whole entry): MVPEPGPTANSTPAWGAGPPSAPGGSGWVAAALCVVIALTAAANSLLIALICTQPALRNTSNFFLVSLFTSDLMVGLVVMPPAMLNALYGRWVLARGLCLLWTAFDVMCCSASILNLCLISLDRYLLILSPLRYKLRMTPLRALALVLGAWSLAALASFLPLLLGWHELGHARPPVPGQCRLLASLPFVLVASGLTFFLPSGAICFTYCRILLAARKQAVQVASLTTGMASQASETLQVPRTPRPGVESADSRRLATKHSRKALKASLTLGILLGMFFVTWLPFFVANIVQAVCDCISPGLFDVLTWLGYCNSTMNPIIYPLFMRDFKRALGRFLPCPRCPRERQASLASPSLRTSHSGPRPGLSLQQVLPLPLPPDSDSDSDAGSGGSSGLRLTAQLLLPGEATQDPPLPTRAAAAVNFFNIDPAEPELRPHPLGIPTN

SMILES	IC50 [1]	IC50 [2]	IC50 (Cytochrome P450 1A2)	Ki (Cytochrome P450 1A2)	IC50 [3]	IC50 (Cytochrome P450 2E1)	Ki (Cytochrome P450 2E1)	IC50 (Substance-P receptor)	IC50 [4]	IC50 (Adenosine receptor A1)	IC50 [5]	IC50 [6]	IC50 [7]	IC50 (Endothelin-1 receptor)	IC50 (Melanocortin receptor 3)	pIC50 ([3]; read-out: IC50)	pKi ([3]; read-out: Ki)	pIC50 ([6]; read-out: IC50)
CNC(=O)Oc1ccc2c(c1)[C@]1(C)CCN(C)[C@@H]1N2C [PHYSOSTIGMINE]	Not Active	Not Active	Not Active	Not Active	Not Active	Not Active	Not Active	Not Active	Not Active	Not Active	Not Active	Not Active	Not Active	Not Active	Not Active			
CCCC[C@@H](CC)COC(=O)c1ccccc1C(=O)OC[C@@H](CC)CCCC [BIS(2-ETHYLHEXYL)PHTHALATE]	Not Active	Not Active	Not Active	Not Active	Not Active	Not Active	Not Active	Not Active	Not Active	Not Active	Not Active	Not Active	Not Active	Not Active	Not Active			
O=C1OC2(c3ccc(O)cc3Oc3cc(O)ccc32)c2ccccc21 [FLUORESCEIN]	Not Active	Not Active	Not Active	Not Active	Not Active	Not Active	Not Active	Not Active	Not Active	Not Active	Not Active	Not Active	Not Active	Not Active	Not Active			
CC1COc2c(N3CCN(C)CC3)c(F)cc3c(=O)c(C(=O)O)cn1c23 (stereo unspecified) [OFLOXACIN]	Not Active	Not Active	Not Active	Not Active	Not Active	Not Active	Not Active	Not Active	Not Active	Not Active	Not Active	Not Active	Not Active	Not Active	Not Active			
COc1ccc([C@@H]2Sc3ccccc3N(CCN(C)C)C(=O)[C@@H]2OC(C)=O)cc1 [DILTIAZEM]	Not Active	Not Active	Not Active	Not Active	Not Active	Not Active	Not Active	Not Active	Not Active	Not Active	Not Active	Not Active	Not Active	Not Active	Not Active			
CC(C)(S)[C@@H](N)C(=O)O [PENICILLAMINE]	Not Active	Not Active	Not Active	Not Active	Not Active	Not Active	Not Active	Not Active	Not Active	Not Active	Not Active	Not Active	Not Active	Not Active	Not Active			
Cc1ccccc1N1CCN(CCc2nnc3n2CCCC3)CC1 [DAPIPRAZOLE]	Not Active	Not Active	Not Active	Not Active		Not Active	Not Active	Not Active	Not Active	Not Active	Not Active	Not Active	Not Active	Not Active	Not Active	8.08	8.39	
Oc1c(Cl)cc(Cl)cc1Sc1cc(Cl)cc(Cl)c1O [BITHIONOL]	Not Active	Not Active	Not Active	Not Active	Not Active	Not Active	Not Active	Not Active	Not Active	Not Active	Not Active		Not Active	Not Active	Not Active			6.41
CC(/C=C1\SC(=S)N(CC(=O)O)C1=O)=C\c1ccccc1	Not Active	Not Active	Not Active	Not Active	Not Active	Not Active	Not Active	Not Active	Not Active	Not Active	Not Active	Not Active	Not Active	Not Active	Not Active			

— ChEMBL document CHEMBL1909046, “DrugMatrix in vitro pharmacology data”
